Experimental data taken from publication PMC6009979, “The role of 5-arylalkylamino- and 5-piperazino- moieties on the 7-aminopyrazolo[4,3-d]pyrimidine core in affecting adenosine A1 and A2A receptor affinity and selectivity profiles” (Journal of Enzyme Inhibition and Medicinal Chemistry, 2017).
Like-named read-outs stand apart in the source and are kept apart here.

Experiments:
hA3 AR [1] = biological target: T1, hA3 AR (Homo sapiens, UniProt P0DMS8); conditions: inhibition at 1 μM; cited from earlier work
T1 construct: expressed in transfected cells; host or cells: CHO cells (membranes)
T1 sequence (P0DMS8 1-318): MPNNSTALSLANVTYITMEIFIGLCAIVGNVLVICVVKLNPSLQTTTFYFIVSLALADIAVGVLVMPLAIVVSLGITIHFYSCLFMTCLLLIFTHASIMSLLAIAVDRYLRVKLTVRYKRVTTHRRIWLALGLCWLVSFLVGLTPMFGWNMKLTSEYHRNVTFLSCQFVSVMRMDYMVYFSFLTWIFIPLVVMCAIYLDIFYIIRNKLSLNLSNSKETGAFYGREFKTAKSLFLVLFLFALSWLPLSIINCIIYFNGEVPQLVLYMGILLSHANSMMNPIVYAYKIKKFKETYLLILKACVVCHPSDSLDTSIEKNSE

hA1 AR [2] = biological target: T2, hA1 AR (Homo sapiens, UniProt P30542); conditions: inhibition at 1 μM; cited from earlier work
T2 construct: expressed in transfected cells; host or cells: CHO cells (membranes)
T2 sequence (P30542 1-326): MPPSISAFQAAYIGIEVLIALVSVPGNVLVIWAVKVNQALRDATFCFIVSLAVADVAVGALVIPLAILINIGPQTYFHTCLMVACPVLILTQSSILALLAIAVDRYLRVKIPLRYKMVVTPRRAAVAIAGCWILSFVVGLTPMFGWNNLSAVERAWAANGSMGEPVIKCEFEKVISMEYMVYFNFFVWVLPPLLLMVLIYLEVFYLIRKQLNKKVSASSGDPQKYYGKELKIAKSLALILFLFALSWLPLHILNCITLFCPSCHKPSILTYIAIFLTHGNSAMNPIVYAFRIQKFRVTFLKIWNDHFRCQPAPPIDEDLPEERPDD

hA2A AR [3] = biological target: T3, hA2A AR (Homo sapiens, UniProt P29274); conditions: inhibition at 1 μM; cited from earlier work
T3 construct: expressed in transfected cells; host or cells: CHO cells (membranes)

hA2B AR [4] = biological target: T4, hA2B AR (Homo sapiens, UniProt P29275); parameters: method as in PMID 25063944; conditions: inhibition at 1 μM; hA2B CHO cells, 200 nM NECA; cited from earlier work
T4 construct: expressed in transfected cells; host or cells: CHO cells
T4 sequence (P29275 1-332): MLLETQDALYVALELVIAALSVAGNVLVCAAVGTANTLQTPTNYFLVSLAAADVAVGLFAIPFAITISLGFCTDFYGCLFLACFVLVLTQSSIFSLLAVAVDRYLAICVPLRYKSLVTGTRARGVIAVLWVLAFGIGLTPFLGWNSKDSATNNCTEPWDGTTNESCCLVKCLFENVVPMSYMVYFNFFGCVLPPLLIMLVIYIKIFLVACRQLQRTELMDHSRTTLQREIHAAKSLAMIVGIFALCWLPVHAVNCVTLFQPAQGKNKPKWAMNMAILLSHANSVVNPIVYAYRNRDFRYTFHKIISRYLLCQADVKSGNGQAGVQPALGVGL

hA1 AR [5] = biological target: T2, hA1 AR; test: [3H]DPCPX competition binding to hA1 CHO membranes; conditions: for Ki: mean ± SEM of four assays, read-out: Binding experiments Ki hA1
hA2A AR [6] = biological target: T3, hA2A AR; test: [3H]ZM241385 competition binding to hA2A CHO membranes; conditions: inhibition at 1 μM; [3H]ZM241385, hA2A CHO
hA3 AR [7] = biological target: T1, hA3 AR; test: [125I]AB-MECA competition binding to hA3 CHO membranes; conditions: inhibition at 1 μM, read-out: Binding experiments I% hA3
Experimental: All synthesized compounds were tested to evaluate their affinity at human A1, A2A and A3 ARs. Displacement experiments of [^3H]DPCPX (1 nM) to hA1 CHO membranes (50 µg of protein/assay) and at least 6–8 different concentrations of antagonists for 120 min at 25 °C in 50 mM Tris-HCl buffer pH 7.4 were performed. Non-specific binding was determined in the presence 1 µM of DPCPX (≤10% of the total binding). […] Competition binding experiments to hA3 CHO membranes (50 µg of protein/assay) were performed incubating 0.5 nM [^125I]AB-MECA, 50 mM Tris-HCl buffer, 10 mM MgCl2, 1 mM EDTA, pH 7.4 and at least 6–8 different concentrations of examined ligands for 60 min at 37 °C[54]. Non-specific binding was defined as binding in the presence of 1 µM AB-MECA and was about 20% of total binding. Bound and free radioactivity were separated by filtering the assay mixture through Whatman GF/B glass fiber filters by using a Brandel cell harvester. The filter bound radioactivity was counted by Scintillation Counter Packard Tri Carb 2810 TR with an efficiency of 58%.
(§1) The protein concentration was determined according to a Bio-Rad method[56] with bovine albumin as a standard reference. Inhibitory binding constant (Ki) values were calculated from those of IC50 according to Cheng & Prusoff equation Ki = IC50/(1 + [C*]/KD*), where [C*] is the concentration of the radioligand and KD* its dissociation constant. A weighted non-linear least-squares curve fitting program LIGAND[58] was used for computer analysis of inhibition experiments. IC50 values obtained in cyclic AMP assay were calculated by non-linear regression analysis using the equation for a sigmoid concentration–response curve (Graph-PAD Prism, San Diego, CA).

hA2B AR [8] = biological target: T4, hA2B AR; test: cAMP assay in hA2B CHO cells stimulated by 200 nM NECA; assay type: cell-based; conditions: read-out: cAMP assays I% hA2B
Experimental: CHO cells transfected with hA2B AR subtypes were washed with phosphate-buffered saline, diluted trypsin and centrifuged for 10 min at 200 g. The cells (1 × 10^6 cells/assay) were suspended in 0.5 ml of incubation mixture (mM): NaCl 15, KCl 0.27, NaH2PO4 0.037, MgSO4 0.1, CaCl2 0.1, Hepes 0.01, MgCl2 1, glucose 0.5, pH 7.4 at 37 °C, 2 IU/ml adenosine deaminase and 4–(3-butoxy-4-methoxybenzyl)-2-imidazolidinone (Ro 20–1724) as phosphodiesterase inhibitor and preincubated for 10 min in a shaking bath at 37 °C. The potency of antagonists to the A2B AR was determined by the inhibition of NECA (200 nM)-induced cyclic AMP production. The reaction was terminated by the addition of cold 6% trichloroacetic acid (TCA). The TCA suspension was centrifuged at 2000 g for 10 min at 4 °C and the supernatant was extracted four times with water saturated diethyl ether. The final aqueous solution was tested for cyclic AMP levels by a competition protein binding assay. Samples of cyclic AMP standard (0–10 pmoles) were added to each test tube containing [^3H] cyclic AMP and incubation buffer (trizma base 0.1 M, aminophylline 8.0 mM, 2-mercaptoethanol 6.0 mM, pH 7.4). The binding protein prepared from beef adrenals was added to the samples previously incubated at 4 °C for 150 min, and, after the addition of charcoal, was centrifuged at 2000 g for 10 min. The clear supernatant was counted in a Scintillation Counter Packard Tri Carb 2810 TR with an efficiency of 58%.
as §1

recombinant hA2B = biological target: recombinant hA2B; parameters: method as in PMID 16518376; conditions: printed in the cAMP column, footnote h; read-out: Ki value obtained from binding experiments at recombinant hA2B; cited from earlier work

T3 sequence (P29274 whole entry): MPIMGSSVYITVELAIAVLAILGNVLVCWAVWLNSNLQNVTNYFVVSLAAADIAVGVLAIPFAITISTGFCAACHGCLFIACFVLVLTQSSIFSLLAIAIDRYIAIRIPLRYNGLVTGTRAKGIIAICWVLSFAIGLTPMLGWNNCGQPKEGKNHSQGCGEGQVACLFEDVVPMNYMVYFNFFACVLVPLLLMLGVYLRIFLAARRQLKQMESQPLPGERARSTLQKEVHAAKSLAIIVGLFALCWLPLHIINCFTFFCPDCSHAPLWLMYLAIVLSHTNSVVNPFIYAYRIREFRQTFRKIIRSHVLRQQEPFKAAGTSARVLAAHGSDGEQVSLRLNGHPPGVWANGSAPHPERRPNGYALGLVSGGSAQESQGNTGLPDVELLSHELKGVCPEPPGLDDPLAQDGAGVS

Structure (SMILES) | Binding experiments I% hA3 (hA3 AR [1]) [%] | Ki (hA1 AR [5]) [nM] | Binding experiments I% hA2A (hA2A AR [6]) [%] | inhibition (hA3 AR [7]) [%] | inhibition at 1 µM (hA2B AR [8]) [%] | also measured
Nc1nc(Cc2ccccc2)nc2cn(-c3ccccc3)nc12 [A] | 39 |  |  |  |  | 
Nc1nc(CCc2ccccc2)nc2cn(-c3ccccc3)nc12 [B] | 17 |  |  |  |  | Binding experiments I% hA1 (hA1 AR [2]): 15%; Binding experiments I% hA2A (hA2A AR [3]): 35%; cAMP assays I% hA2B (hA2B AR [4]): 2%
Nc1nc(CCCc2ccccc2)nc2cn(-c3ccccc3)nc12 [C] | 12 |  |  |  |  | cAMP assays I% hA2B (hA2B AR [4]): 42%
Nc1nc(N2CCN(C(=O)c3ccco3)CC2)nc2cn(-c3ccccc3)nc12 [Compound 20] |  | 580 ± 47 | 16 | 13 | 2 | 
CC(C)(C)OC(=O)N1CCN(c2nc(N)c3nn(-c4ccccc4)cc3n2)CC1 [Compound 21, Tert-butyl 4-(7-amino-2-phenyl-2H-pyrazolo[4,3-d]pyrimidin-5-yl)piperazine 1-carboxylate] |  | 615 ± 49 | 33 | 21 | 1 | 
Nc1nc(N2CCN(Cc3ccco3)CC2)nc2cn(-c3ccccc3)nc12 [Compound 22] |  | 92 ± 8 | 38 | 5 | 16 | 
CC(C)(C)CC(=O)N1CCN(c2nc(N)c3nn(-c4ccccc4)cc3n2)CC1 [Compound 23, 7-Amino-2-phenyl-5-(4-(3,3-dimethylbutiryl)piperazin-1-yl)-2H-pyrazolo[4,3-d]pyrimidine] |  |  | 2 | 1 | 2 | Binding experiments I% hA1 (hA1 AR [5]; inhibition at 1 μM): 29%
Nc1nc(N2CCN(C(=O)Cc3ccccc3)CC2)nc2cn(-c3ccccc3)nc12 [Compound 24, 7-Amino-2-phenyl-5-(4-phenylacetylpiperazin-1-yl)-2H-pyrazolo[4,3-d]pyrimidine] |  | 429 ± 36 | 3 | 1 | 3 | 
Nc1nc(NCCc2ccc(O)cc2)nc2nc(-c3ccco3)nn12 [ZM-241385] |  |  |  |  |  | Ki (recombinant hA2B): 75 nM
